According to patent publication US20030106108A1, “Genetic transformation method for zoysiagrass” (priority 2001, published 2003):

How the values were obtained:
zoysiagrass type 1 calli = test: Growth of type 1 calli on MS media with combinations of 2,4-D and BA; assay type: cell-based, Zoysia japonica Steud.; details: for Callus fresh weight, Total / Callus fresh weight, Type 1 / Callus fresh weight, Type 2 / Callus fresh weight, Type 3 / Callus fresh weight, Type 4: BA 0 mg/l, 5 weeks, dark, 28° C., mean of ten calli
Description: To investigate morphological changes occurring on type 1 calli subculturing, type 1 calli were transferred to a MS medium containing various hormonal combinations of 2,4-D (1, 2, 4, and 8 mg/liter) and BA (0, 0.01, and 0.1 mg/liter) in the dark. After five weeks of subculturing in the dark, four callus types were observed. Each callus type was weighed, and the weight ratios were calculated. Calli of types 2, 3, and 4 were also examined in an identical way as with type 1 callus.
Ten mg of type 1 calli was grown on MS media with various combinations of 2,4-D and BA and 2 g/liter gelrite for 5 weeks in the dark at 28° C. Each value represents a mean calculated from ten calli. Callus morphologies were rated by; 1=whitish-yellow, compact and non-friable, 2=white, compact and friable, 3=yellow, compact and very friable, 4=translucent, soft and watery.

zoysiagrass calli = assay type: cell-based, Zoysia japonica Steud.
Description: Acetosyringone was prepared by dissolving an appropriate amount of powder in dimethyl sulfoxide at a concentration of 100 mg/ml and stored at 4° C. in the dark. It was added to the sterile medium to an appropriate final concentration whenever required. The calli proliferated on the MSCG4 medium were immersed in the Agrobacterial cell suspension for 1 min. After dehydration on sterile filter paper, the calli were cultivated on a co-cultivation medium (MSAS) with 4 mg/liter 2,4-D at 26±1° C. in the dark for 15 days. After co-cultivation, the calli were thoroughly washed by vortexing in sterile double-distilled water supplemented with a surfactant (0.02% pluronic F68) until the washing solution becomes transparent and finally washed in sterile double-distilled water containing 1000 mg/liter calbenicillin and 0.02% surfactant. After washing, an half of the calli were used for GUS activity assay by the method described by Schenk et al. (1998).
Several factors were tested to optimize transformation efficiency. (1) For comparison of different callus types on invasiveness, types 1, 2 and 3 calli were co-cultivated on 2,4-D-free MSAS media for 6 days; (2) For comparison of co-cultivation periods, calli were co-cultivated for 3, 6, 9, 12, 15, 18, 21, 24 and 27 days; (3) For examination of media components, different amounts of 2,4-D (0, 1, 2, 4, and 8 mg/liter), CaCl2 (0, 11, 110, 220, and 440 mg/liter), and acetosyringone (0, 10, 50, 100, and 200 mg/liter) were added to the MSAS media.

Agrobacterial cell = test: Agrobacterium elimination in shoot induction media; assay type: cell-based, Agrobacterium tumefaciens; details: 125 mg/liter calbenicillin-containing media
Description: The optimized conditions for the A. tumefaciens infection of zoysiagrass calli included the use of type 3 calli as donor, a co-cultivation period of 9 days, the exclusion of 2,4-D and CaCl2 from the media, and the use of 100 mg/l acetosyringone. After pGPTV-HB co-cultivation, calli were transferred to filter paper-laid MSCG media and cultured for 2-4 weeks in the dark. The calli were then transferred to filter paper-laid MSSI medium for shoot induction. Various concentrations (125, 250, and 500 mg/liter) of calbenicillin were added to the shoot induction medium. Induced shoots were subsequently transferred to the MSRS medium for rooting and selection for 4 weeks. Five mg/liter bialaphos and 10 mg/liter hygromycin were used for selection of bialaphos- and hygromycin-resistant plantlets. The rooting plants on the selection medium were transferred to the MSPG medium without antibiotics and bialaphos and further grown. The fully grown plants were then transferred to a pot containing soil and grown in an environmentally controlled growth chamber set at 30° C., 80% relative humidity and 18-hour photoperiod with 30 μmolm^−2s^−1 irradiance provided by cool white fluorescent tubes. When the roots developed enough, pots were transferred to green house. […]

O=C(O)COc1ccc(Cl)cc1Cl [2,4-D, 2,4-dichlorophenoxyacetic acid]
Callus fresh weight, Total (zoysiagrass type 1 calli; 2,4-D 1 mg/l): 81.5 mg | Callus fresh weight, Type 1 (zoysiagrass type 1 calli; 2,4-D 1 mg/l): 45.8 mg | Callus fresh weight, Type 2 (zoysiagrass type 1 calli; 2,4-D 1 mg/l): 22.3 mg | Callus fresh weight, Type 3 (zoysiagrass type 1 calli; 2,4-D 1 mg/l): 0 mg | Callus fresh weight, Type 4 (zoysiagrass type 1 calli; 2,4-D 1 mg/l): 13.4 mg | Callus fresh weight, Total (zoysiagrass type 1 calli; 2,4-D 2 mg/l): 37.0 mg | Callus fresh weight, Type 1 (zoysiagrass type 1 calli; 2,4-D 2 mg/l): 18.8 mg | Callus fresh weight, Type 2 (zoysiagrass type 1 calli; 2,4-D 2 mg/l): 2.3 mg | Callus fresh weight, Type 3 (zoysiagrass type 1 calli; 2,4-D 2 mg/l): 1.5 mg | Callus fresh weight, Type 4 (zoysiagrass type 1 calli; 2,4-D 2 mg/l): 14.5 mg | Callus fresh weight, Total (zoysiagrass type 1 calli; 2,4-D 4 mg/l): 29.6 mg | Callus fresh weight, Type 1 (zoysiagrass type 1 calli; 2,4-D 4 mg/l): 11.4 mg | Callus fresh weight, Type 2 (zoysiagrass type 1 calli; 2,4-D 4 mg/l): 0 mg | Callus fresh weight, Type 3 (zoysiagrass type 1 calli; 2,4-D 4 mg/l): 0.9 mg | Callus fresh weight, Type 4 (zoysiagrass type 1 calli; 2,4-D 4 mg/l): 17.2 mg | Number of GUS blue spots per 1 g fresh weight of calli, effect of 2,4-D (zoysiagrass calli; 2,4-D 0, 1, 2, 4, 8 mg/liter in co-cultivation medium, 9 days of co-cultivation): decreased as the 2,4-D concentration increased

c1ccc(CNc2ncnc3[nH]cnc23)cc1 [BA]
Reduction of incidence rate of non-regenerable type 4 calli (zoysiagrass type 1 calli; addition of 0.01 mg/liter BA in combination with 2,4-D): 1.8-3.4 times

[Ca+2].[Cl-].[Cl-] [CaCl2]
Number of GUS blue spots per 1 g fresh weight calli, effect of CaCl2 (zoysiagrass calli; CaCl2 0, 11, 110, 220, 440 mg/liter in co-cultivation medium): decreased as the CaCl2 concentration increased

COc1cc(C(C)=O)cc(OC)c1O [acetosyringone]
Increase of the number of blue spots (factor) (zoysiagrass calli; 50 mg/liter acetosyringone in co-cultivation medium vs acetosyringone-free medium): 9 | Transformation efficiency (zoysiagrass calli; 30˜70 mg/liter acetosyringone during co-cultivation): greatly enhanced | Effect on the transformation (zoysiagrass calli; higher than 100 mg/liter acetosyringone): negative effect

CC1(C)S[C@@H]2[C@H](NC(=O)C(C(=O)O)c3ccccc3)C(=O)N2[C@H]1C(=O)O (stereo partly shown) [calbenicillin]
Agrobacterial cell contamination of media (Agrobacterial cell): sometimes observed
